Measured values as given in ChEMBL document CHEMBL4196094, “Structure-based design of bacterial transglycosylase inhibitors incorporating biphenyl, amine linker and 2-alkoxy-3-phosphorylpropanoate moieties” (Eur J Med Chem, 2018).
In brackets after ≈: the same amount, converted by molar mass.

Key:
[1] = biological target: T1, Penicillin-binding protein 1B (Acinetobacter baumannii) (UniProt G1C7A4); assay: Inhibition of Acinetobacter baumannii PBP1b transglycosylase activity at 500 uM using NBD-lipid 2 as substrate after 2 hrs by muramidase enzyme coupled HPLC analysis relative to control
T1 sequence (whole entry): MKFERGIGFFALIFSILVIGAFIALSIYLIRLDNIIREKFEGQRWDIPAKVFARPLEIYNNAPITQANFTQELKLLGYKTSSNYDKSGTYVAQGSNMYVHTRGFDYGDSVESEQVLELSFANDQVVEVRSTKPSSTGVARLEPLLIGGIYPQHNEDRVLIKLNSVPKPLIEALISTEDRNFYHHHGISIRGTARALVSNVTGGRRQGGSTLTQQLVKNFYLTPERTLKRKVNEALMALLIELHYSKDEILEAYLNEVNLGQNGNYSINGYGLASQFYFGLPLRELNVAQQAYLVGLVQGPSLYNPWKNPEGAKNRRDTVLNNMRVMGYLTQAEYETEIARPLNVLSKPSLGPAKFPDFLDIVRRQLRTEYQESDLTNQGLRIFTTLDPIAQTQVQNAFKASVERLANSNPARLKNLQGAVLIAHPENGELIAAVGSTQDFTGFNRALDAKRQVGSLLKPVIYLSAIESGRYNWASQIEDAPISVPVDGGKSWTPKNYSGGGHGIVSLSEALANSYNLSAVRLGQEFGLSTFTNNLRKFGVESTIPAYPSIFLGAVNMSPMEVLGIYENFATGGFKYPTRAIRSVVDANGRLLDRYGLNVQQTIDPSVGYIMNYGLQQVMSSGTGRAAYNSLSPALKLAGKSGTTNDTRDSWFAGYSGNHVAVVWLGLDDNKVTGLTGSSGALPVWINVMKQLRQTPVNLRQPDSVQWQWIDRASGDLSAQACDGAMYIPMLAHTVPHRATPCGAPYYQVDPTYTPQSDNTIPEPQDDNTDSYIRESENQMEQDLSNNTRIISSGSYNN

Staphylococcus aureus = assay: Antibacterial activity against Staphylococcus aureus after 16 to 18 hrs; format: functional
[2] = biological target: T1, Penicillin-binding protein 1B (Acinetobacter baumannii); assay: Inhibition of Acinetobacter baumannii PBP1b transglycosylase activity at 1 uM using NBD-lipid 2 as substrate after 2 hrs by muramidase enzyme coupled HPLC analysis relative to control
[3] = biological target: T1, Penicillin-binding protein 1B (Acinetobacter baumannii); assay: Inhibition of Acinetobacter baumannii PBP1b transglycosylase activity at 200 uM using NBD-lipid 2 as substrate after 2 hrs by muramidase enzyme coupled HPLC analysis relative to control
[4] = biological target: T2, Penicillin-binding protein 1B (Acinetobacter baumannii, UniProt G1C7A4); assay: Inhibition of Acinetobacter baumannii PBP1b transglycosylase activity using NBD-lipid 2 as substrate after 2 hrs by muramidase enzyme coupled HPLC analysis
T2 sequence (G1C7A4 whole entry): T1 sequence (whole entry)

inhibition [1] [%] | MIC95 (Staphylococcus aureus) [µM] | Compound | also measured
< 5 |  | CCCCCCCCCCCCn1cc(CO[C@H](CP(=O)(O)OCCCNC(=O)c2ccc(-c3ccccc3)cc2)C(=O)O)nn1 | 
 | 1.4 (≈ 0.489 µg/mL) | CC1(C)S[C@@H]2[C@H](NC(=O)[C@H](N)c3ccccc3)C(=O)N2[C@H]1C(=O)O [AMPICILLIN] | 
 |  | C=C(C/C=C(\C)CCC=C(C)C)CCC(C)(C)/C=C/CC/C(C)=C\CO[C@H](COP(=O)(O)O[C@H]1O[C@H](C(N)=O)[C@@](C)(O)[C@H](OC(N)=O)[C@H]1O[C@@H]1O[C@H](CO[C@@H]2O[C@H](CO)[C@@H](O)[C@H](O)[C@H]2O)[C@@H](O[C@@H]2O[C@H](C)[C@@H](O[C@@H]3O[C@H](C(=O)NC4=C(O)CCC4=O)[C@H](O)[C@H](O)[C@H]3O)[C@H](O)[C@H]2NC(C)=O)[C@H](O)[C@H]1NC(C)=O)C(=O)O | inhibition [2]: 100%
< 5 |  | CCCCCCCCCCCCn1cc(CO[C@H](CP(=O)(O)OCCCN(Cc2ccc(-c3ccccc3)cc2)C(=O)OCC(Cl)(Cl)Cl)C(=O)O)nn1 | 
 | > 400 | CCCCCCCCCCCCn1cc(CO[C@H](CP(=O)(O)OCCCN(Cc2ccc(-c3ccccc3)cc2)Cc2ccc(-c3ccccc3)cc2)C(=O)OCC)nn1 | inhibition [3]: 99%; IC50 [4]: 87 µM
90 | 6.3 (≈ 4.23 µg/mL) | CCCCCCCCCCCCn1cc(CO[C@H](CP(=O)(O)OCCCNCc2ccc(-c3ccccc3)cc2)C(=O)OCC)nn1 | inhibition [3]: 34%; IC50 [4]: 232 µM
33 |  | CCCCCCCCCCCCn1cc(CO[C@H](CP(=O)(O)OCCCN(Cc2ccc(-c3ccccc3)cc2)C(=O)OC(C)(C)C)C(=O)OCC)nn1 | 
 | 6.3 (≈ 4.31 µg/mL) | CCCCCCCCCCCCn1cc(CO[C@H](CP(=O)(O)OCCCN(C)Cc2ccc(-c3ccccc3)cc2)C(=O)OCC)nn1 | inhibition [3]: 99%; IC50 [4]: 153 µM
70 |  | CCCCCCCCCCCCn1cc(CO[C@H](CP(=O)(O)OCCCN(Cc2ccc(-c3ccccc3)cc2)C(=O)OCC(Cl)(Cl)Cl)C(=O)OCC)nn1 | 
 | 6.3 (≈ 4.14 µg/mL) | CCCCCCCCCCCCn1cc(CO[C@H](CP(=O)(O)OCCNCc2ccc(-c3ccccc3)cc2)C(=O)OCC)nn1 | inhibition [3]: 99%; IC50 [4]: 157 µM
48 |  | CCCCCCCCCCCCn1cc(CO[C@H](CP(=O)(O)OCCCNCc2ccc3ccccc3c2)C(=O)O)nn1 | 
< 5 |  | CCCCCCCCCCCCn1cc(CO[C@H](CP(=O)(O)OCCCNC(=O)c2ccc(-c3ccccc3)cc2)C(=O)OCC)nn1 | 
13 |  | CCCCCCCCCCCCn1cc(CO[C@H](CP(=O)(O)OCCCNCc2ccc(-c3ccccc3)cc2)C(=O)O)nn1 | 
55 | 6.3 (≈ 4.06 µg/mL) | CCCCCCCCCCCCn1cc(CO[C@H](CP(=O)(O)OCCCNCc2ccc3ccccc3c2)C(=O)OCC)nn1 | 
